Data reported in patent US20230416205A1, “COMPOUNDS, COMPOSITIONS, AND METHODS” (Denali Therapeutics Inc, priority 2020, published 2023).

Tested on: NLRP3
Assay: IL-1β secretion assay in PMA-differentiated, LPS/nigericin-stimulated THP-1 cells (384-well, ELISA read-out)
Type: cell-based, human
Settings: Homo sapiens, THP-1, Table 4; IL-1β secretion, LPS/nigericin-stimulated THP-1 cells; read-out: IC50
In short: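 THP-1 cells differentiated with PMA (5 ng/mL, 40 h), primed in serum-free medium with 25 ng/mL LPS for 2 h, treated with compounds 1 h (0.5% DMSO), then stimulated with nigericin for 2 h at 37 °C. Supernatant IL-1β measured by ELISA; responses normalized to LPS+5 μM nigericin and LPS-only controls.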

O=C(CN1CC2(CC2)c2cc(Br)ccc2C1=O)NC1CC(c2ccccc2)C1 (stereo not drawn) [Example 427, 2-(6-bromo-1-oxospiro[3H-isoquinoline-4,1′-cyclopropane]-2-yl)-N-(3-trans-phenylcyclobutyl)acetamide]
IC50: 6280 nM

O=C(CN1CC2(CC2)c2cc(Br)ccc2C1=O)Nc1nc2c(Cl)cccn2n1 [Example 429, 2-(6-bromo-1-oxospiro[3H-isoquinoline-4,1′-cyclopropane]-2-yl)-N-(8-chloro-[1,2,4]triazolo[1,5-a]pyridin-2-yl)acetamide]
IC50: 1660 nM

O=C(CN1CC2(CC2)c2cc(Br)ccc2C1=O)Nc1ccc(=O)[nH]n1 [Example 430, 2-(6-bromo-1-oxospiro[3H-isoquinoline-4,1′-cyclopropane]-2-yl)-N-(6-oxo-1H-pyridazin-3-yl)acetamide]
IC50: 634 nM
